Results as given in patent publication US10640457B2, “Histone acetyltransferase activators and uses thereof” (The Trustees of Columbia University in the City of New York, priority 2009, dated 2020).

Tests used:
[1] = literature [22, 23]; cited from earlier work
[2] = literature [22, 23]; cited from earlier work; remark: listed apart in the source
Solubility observations = format: physicochemical
[3] = literature [P48]; cited from earlier work
Sirtuin 1 = target: T1, Sirtuin 1 (Homo sapiens, UniProt Q96EB6); test: Sirtuin 1 fluorogenic activity assay
T1 sequence (Q96EB6 1-747): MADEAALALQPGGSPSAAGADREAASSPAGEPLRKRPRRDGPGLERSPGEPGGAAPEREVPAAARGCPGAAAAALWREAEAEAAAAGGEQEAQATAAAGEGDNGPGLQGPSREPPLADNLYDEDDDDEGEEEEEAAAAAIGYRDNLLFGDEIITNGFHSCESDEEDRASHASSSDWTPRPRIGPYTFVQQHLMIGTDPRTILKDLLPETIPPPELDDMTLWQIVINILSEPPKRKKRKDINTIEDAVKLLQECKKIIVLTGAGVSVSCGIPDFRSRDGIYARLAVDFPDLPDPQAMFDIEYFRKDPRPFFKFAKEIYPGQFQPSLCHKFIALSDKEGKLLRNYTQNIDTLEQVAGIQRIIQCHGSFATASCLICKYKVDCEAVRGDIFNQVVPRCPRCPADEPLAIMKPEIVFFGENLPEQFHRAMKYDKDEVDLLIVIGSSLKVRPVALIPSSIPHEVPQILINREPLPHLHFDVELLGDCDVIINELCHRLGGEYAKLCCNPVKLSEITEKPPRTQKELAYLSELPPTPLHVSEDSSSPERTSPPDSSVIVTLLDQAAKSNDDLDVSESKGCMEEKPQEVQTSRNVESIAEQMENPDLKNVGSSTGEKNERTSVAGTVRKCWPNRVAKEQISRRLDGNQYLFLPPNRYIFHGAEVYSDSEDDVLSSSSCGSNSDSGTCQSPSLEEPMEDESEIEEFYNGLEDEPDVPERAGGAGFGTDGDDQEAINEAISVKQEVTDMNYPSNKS

Sirtuin 2 = target: T2, Sirtuin 2 (Homo sapiens, UniProt Q8IXJ6); test: Sirtuin 2 fluorogenic activity assay
T2 sequence (Q8IXJ6 1-389): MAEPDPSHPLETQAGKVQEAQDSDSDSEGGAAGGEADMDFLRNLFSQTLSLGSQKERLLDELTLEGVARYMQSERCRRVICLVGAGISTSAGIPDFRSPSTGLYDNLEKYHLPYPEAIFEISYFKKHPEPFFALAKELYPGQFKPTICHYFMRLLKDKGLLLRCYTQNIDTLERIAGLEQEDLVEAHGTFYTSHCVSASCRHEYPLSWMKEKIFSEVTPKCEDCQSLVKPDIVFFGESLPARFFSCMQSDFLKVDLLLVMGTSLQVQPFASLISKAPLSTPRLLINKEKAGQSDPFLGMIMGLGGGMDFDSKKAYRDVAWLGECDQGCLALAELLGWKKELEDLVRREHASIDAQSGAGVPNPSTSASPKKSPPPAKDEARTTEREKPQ

Row | Structure (SMILES) | membrane permeability [1] | solubility [2] | further results
1 | CCCCCCCCCCCCCCCc1cccc(OCC)c1C(=O)Nc1ccc(Cl)c(C(F)(F)F)c1 [CTPB] | membrane-impermeable | insoluble | 
2 | CCOc1ccccc1C(=O)Nc1ccc(Cl)c(C(F)(F)F)c1 [6J, N-(4-chloro-3-trifluoromethyl-phenyl)-2-ethoxy-benzamide] | membrane-impermeable | insoluble | solubility in H2O (Solubility observations): no solubility
3 | Cc1cc(-c2ccccc2)nnc1NCCN1CCOCC1 [minaprine] |  |  | brain/blood ratio [3]: > 2
4 | O=C(CCCCCCC(=O)Nc1ccccc1)NO [SAHA, reference compound] |  |  | IC50 (Sirtuin 1): > 10 µM; IC50 (Sirtuin 2): > 10 µM
